Biological target: T1, HIV-integrase (Human immunodeficiency virus type 1 group M subtype B, UniProt P12497)
T1 construct: Recombinant integrase (0.26 ng) was incubated with the beads
Experiment: HIV-Integrase Inhibition Activity (SPA bead integration assay with P33 labeled target DNA)
Assay type: biochemical
Details: recombinant integrase, class symbols; read-out: in vitro activity
In short: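 Strand integration read as bead-proximity CPM after P33 target DNA (0.1 fmol) and inhibitor were added to washed integrase–substrate DNA complexes on SPA beads. Enzyme bound 90 min at 37° C; EDTA (10 mM final) terminated reaction; IC50 graded A/B/C.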

Structure (SMILES) | IC50
CC(=O)N1CCCC1C(=O)NC12CCC(CC1)Cn1c2nc(C(=O)NCc2ccc(F)cc2)c(O)c1=O (stereo in doubt) [Example 253, 7,10-Ethanopyrimido[1,2-a]azepine-2-carboxamide, 10-[[[(2R)-1-acetyl-2-pyrrolidinyl]carbonyl]amino]-N-[(4-fluorophenyl)methyl]-4,6,7,8,9,10-hexahydro-3-hydroxy-4-oxo-] | 10 to 100 nM
O=C(NC12CCC(CC1)Cn1c2nc(C(=O)NCc2ccc(F)cc2)c(O)c1=O)C(=O)N1CCN(CCO)CC1 [Example 72, N-(4-Fluorobenzyl)-3-hydroxy-10-(((4-(2-hydroxyethyl)-1-piperazinyl)(oxo)acetyl)amino)-4-oxo-4,6,7,8,9,10-hexahydro-7,10-ethanopyrimido[1,2-a]azepine-2-carboxamide] | < 10 nM
Cc1cc(CNC(=O)c2nc3n(c(=O)c2O)CC2CCC3(N(C)C(=O)C(=O)N(C)Cc3cnn(C)c3C)CC2)ccc1F [Example 172, N-((1,5-Dimethyl-1H-pyrazol-4-yl)methyl)-N′-(2-((4-fluoro-3-methylbenzyl)carbamoyl)-3-hydroxy-4-oxo-6,7,8,9-tetrahydro-7,10-ethanopyrimido[1,2-a]azepin-10(4H)-yl)-N,N′-dimethylethanediamide] | < 10 nM
CN1CCN(c2cccc(CNC(=O)c3nc4n(c(=O)c3O)CC3CCC4(NC(=O)C(=O)N(C)C)CC3)c2)CC1 [Example 127, N′-(3-Hydroxy-2-((3-(4-methyl-1-piperazinyl)benzyl)carbamoyl)-4-oxo-6,7,8,9-tetrahydro-7,10-ethanopyrimido[1,2-a]azepin-10(4H)-yl)-N,N-dimethylethanediamide] | 10 to 100 nM
CN(C)C(=O)CNC12CCC(CC1)Cn1c2nc(C(=O)NCc2ccc(F)cc2)c(O)c1=O [Example 30, 10-((2-(Dimethylamino)-2-oxoethyl)amino)-N-(4-fluorobenzyl)-3-hydroxy-4-oxo-4,6,7,8,9,0-hexahydro-7,10-ethanopyrimido[1,2-a]azepine-2-carboxamide] | 10 to 100 nM
O=C(NC12CCC(CC1)Cn1c2nc(C(=O)NCc2ccc(F)cc2)c(O)c1=O)c1ccncc1 [Example 35, N-(4-Fluorobenzyl)-3-hydroxy-4-oxo-10-((4-pyridinylcarbonyl)amino)-4,6,7,8,9,10-hexahydro-7,10-ethanopyrimido[1,2-a]azepine-2-carboxamide] | < 10 nM
O=C(NC12CCC(CC1)Cn1c2nc(C(=O)NCc2ccc(F)cc2)c(O)c1=O)OCCO [Example 260, Carbamic acid, [2-[[[(4-fluorophenyl)methyl]amino]carbonyl]-6,7,8,9-tetrahydro-3-hydroxy-4-oxo-7,10-ethanopyrimido[1,2-a]azepin-10(4H)-yl]-, 2-hydroxyethyl ester] | < 10 nM
Cc1cc(CNC(=O)c2nc3n(c(=O)c2O)CC2CCC3(NC(=O)Nc3cccnc3)CC2)ccc1F [Example 326, 7,10-Ethanopyrimido[1,2-a]azepine-2-carboxamide, N-[(4-fluoro-3-methylphenyl)methyl]-4,6,7,8,9,10-hexahydro-3-hydroxy-4-oxo-10-[[(3-pyridinylamino)carbonyl]amino]-] | < 10 nM
CN(CCO)C(=O)C(=O)NC12CCC(CC1)Cn1c2nc(C(=O)NCc2ccc(F)cc2)c(O)c1=O [Example 81, N′-(2-((4-Fluorobenzyl)carbamoyl)-3-hydroxy-4-oxo-6,7,8,9-tetrahydro-7,10-ethanopyrimido[1,2-a]azepin-10(4H)-yl)-N-(2-hydroxyethyl)-N-methylethanediamide] | < 10 nM
CS(=O)(=O)N1CCN(C(=O)C(=O)NC23CCC(CC2)Cn2c3nc(C(=O)NCc3ccc(F)cc3)c(O)c2=O)CC1 [Example 76, N-(4-Fluorobenzyl)-3-hydroxy-10-(((4-(methylsulfonyl)-1-piperazinyl)(oxo)acetyl)amino)-4-oxo-4,6,7,8,9,10-hexahydro-7,10-ethanopyrimido[1,2-a]azepine-2-carboxamide] | < 10 nM

— US8129398B2 (priority 2008, dated 2012)
